What was measured:
[1] = system: ACACA; experiment: Gene expression in HepG2 cells (qPCR), ACACA; format: cell-based; conditions: for 48 hours, normalized to β-Actin, relative to mock or vehicle treated cells (ΔΔCT)
Protocol: Gene Expression: The effect of selected compounds on the gene expression of HepG2 cells was evaluated. HepG2 cells (P2) were seeded in 24 well plate (80,000 cells/well) for RNA extraction and in a 96 well plate (10,000 cells/well) for Cell Titer Glow (CTG). The media used was DMEM and contained 10% FBS. Each compound was evaluated at […] for 48 hours. Two biological replicates per experimental group were evaluated for RNA. For gene analysis, RNA was harvested with RNEasy kit and 20-100 ng used to synthesize cDNA with random primers. Quantitative PCR was performed on 1 pg to 100 ng cDNA for the following genes: ACACA, ACLY, FASN, LSS, PNPLA3. Gene expression levels were normalized with housekeeping gene, β-Actin, and relative expression levels determined using ΔΔCT method comparing treated to mock or vehicle treated cells as a baseline. “Total” gene expression refers to the average of the values of the 5 genes listed above.

[2] = Stability in human liver microsomes; format: in vitro ADME; conditions: 60 min at 37° C., NADPH
Protocol: (§1) Half-life Human Microsomes: Compounds were evaluated for stability in human liver microsomes. A 10 mM stock solution of the compound being evaluated was prepared in DMSO and diluted with water:acetonitrile (1:1) to a concentration of 1 mM. A working concentration of 100 μM was prepared by further dilution with water:acetonitrile (1:1). To make the preincubation mixture, 2.5 μL of the diluted compound was combined with 75 μL of human liver microsomes at 3.33 mg/mL, and 85 μL of 100 mM potassium phosphate buffer, and this mixture was pre-incubated for 10 min at 37° C. To make the 60 minute mixture without cofactor, 32.5 μL of the preincubation mixture was combined with 17.5 μL of 100 mM potassium phosphate buffer and incubated for 60 min at 37° C. To make the 0 min sample with cofactor (NADPH), 16.25 μL of the preincubation mixture was combined with 200 μL of acetonitrile containing internal standard and 8.75 μL of cofactor (NADPH). To make the incubation mixture, 62 μL of cofactor (2.85 mM) was combined with the remaining incubation mixture, and incubated for 60 min at 37° C. To prepare the sample mixture to be evaluated, 25 μL incubation mixture was combined with 200 μL of acetonitrile containing internal standard and vortexed for 5 min at 1200 rpm, then centrifuged for 10 min at 4000 rpm. The supernatant was diluted 2 fold with water and injected on LC-MS/MS. The sample mixture was evaluated by LC-MS/MS using 10 mM ammonium acetate with 0.1% FA as the aqueous mobile phase, and methanol as the organic mobile phase.

[3] = Stability in mouse liver microsomes; format: in vitro ADME
Protocol: as §1
Half-life Mouse Microsomes: Compounds were evaluated in mouse liver microsomes following a similar procedure as described above for human liver microsomes. A similar procedure could be used to evaluate compounds in rat liver microsomes.

[4] = system: SREBP; experiment: Reporter Screening Assay (SRE-luciferase reporter, HepG2); format: cell-based; conditions: Homo sapiens, SREBPv1 Reporter cell line HepG2, 24 hours, 0.01 uM to 10 uM, read-out: I: Reporter Screening Assay (Ave EC50 (nM))
Protocol: Reporter Screening Assay: This assay was used to evaluate the effect on transcriptional activity SREBP of selected compounds using an SRE-luciferase reporter construct. On day 1, 10,000 cells were seeded in a 96 well (white) plate as per the plate map in Growth media without antibiotics. Cells were incubated at 37° C. for 8 hours. After 8 hours, cells were washed with DPBS for complete removal of FBS. DPBS was completely removed and Growth media was replaced with phenol free treatment medium (90 μl) with different FBS concentrations. The cells were then incubated at 37° C. for 24 hours with varying doses (0.01 uM to 10 uM) of compounds. Then a Luciferase assay was performed.
Reagents for performing Luciferase assay were stored at −20° C. To a tube of lyophilized assay substrate was added 1 mL Substrate Solvent and mixed well. The Substrate tube after reconstitution was covered with aluminum foil so as to keep it protected from light. The assay buffer was thawed to room temperature. To 20 mL Assay Buffer was added 200 µL of reconstituted 100× Substrate and mixed well. The reconstituted substrate as well as the assay solution (buffer + substrate) was protected from light throughout the procedure by keeping it covered with aluminum foil. Using a multi-channel pipette, 100 μL Assay Solution (buffer + substrate) was added directly to each sample well in Plate 1, which was incubated for 30 min (plate was covered with aluminum foil). After 30 min incubation, the plate was read for total luminescence. Each well was read for 2 seconds in a plate luminometer. (Microplate reader Envision Microplate reader from Perkin Elmer). Precaution was taken to incubate plate exactly for 30 min prior to reading on the plate reader.
Reporter Assay Materials: SREBPv1 Reporter cell line: HepG2-#32251. Growth Medium: MEM (Corning 10-010), 10% FBS, 1% GlutaMax (Invitrogen Catalog #35050061), […] (Invitrogen Catalog #A1113803) and 1% Penicillin-Streptomycin (Pen-Strep). Treatment Media: Phenol-free MEM (Invitrogen Catalog #51200-038) and 1% GlutaMax (Invitrogen Catalog #35050061). Luciferase Assay: LightSwitch Luciferase Assay Kit (Catalog #32032). LDH assay: Pierce LDH Cytotoxicity Assay Kit (Catalog #SD249616).

For `O=C(c1ccc(-c2cc(-c3ccnc(OC4CC4)c3)cs2)c(Cl)c1)N1CCC(O)CC1` [Compound I-1629059, (3-chloro-4-(4-(2-cyclopropoxypyridin-4-yl)thiophen-2-yl)phenyl)(4-hydroxypiperidin-1-yl)methanone], the “A: ACACA, effect of compounds on gene expression of HepG2 cells” value (“A: ACACA, effect of compounds” for short) [1] was “++ (0.31-0.7509 = ++)”, the “percent remaining after 60 min in human liver microsomes” value [2] was “+++ (≥60.1 = +++)” and the “percent remaining after 60 min in mouse liver microsomes” value [3] was “+++ (≥60.1 = +++)”. The EC50 [4] was < 249 nM.
For `O=C(c1ccc(-c2cc(-c3ccnc4c3OCCO4)cs2)c(Cl)c1)N1CCC(O)CC1` [Compound I-1629066, (3-chloro-4-(4-(2,3-dihydro-[1,4]dioxino[2,3-b]pyridin-8-yl)thiophen-2-yl)phenyl)(4-hydroxypiperidin-1-yl)methanone], the “A: ACACA, effect of compounds” value [1] was “++ (0.31-0.7509 = ++)”, the “percent remaining after 60 min in human liver microsomes” value [2] was “++ (30.1-60 = ++)” and the “percent remaining after 60 min in mouse liver microsomes” value [3] was “++ (30.1-60 = ++)”. The EC50 [4] was < 249 nM.
With `O=C(c1ccc(-c2cc(-c3ccnc4c3OCCN4)cs2)c(Cl)c1)N1CCC(O)CC1` [Compound I-1629067, (3-chloro-4-(4-(3,4-dihydro-2H-pyrido[3,2-b][1,4]oxazin-8-yl)thiophen-2-yl)phenyl)(4-hydroxypiperidin-1-yl)methanone] the “A: ACACA, effect of compounds” value [1] was “++ (0.31-0.7509 = ++)”, the “percent remaining after 60 min in human liver microsomes” value [2] was “+ (0-30 = +)” and the “percent remaining after 60 min in mouse liver microsomes” value [3] was “+ (0-30 = +)”. For the same molecule, the EC50 [4] was < 249 nM.
For `O=C(c1ccc(-c2cc(-c3ccnc4c3NCCN4)cs2)c(Cl)c1)N1CCC(O)CC1` [Compound I-1629068, (3-chloro-4-(4-(l,2,3,4-tetrahydropyrido[2,3-b]pyrazin-8-yl)thiophen-2-yl)phenyl)(4-hydroxypiperidin-1-yl)methanone], the “A: ACACA, effect of compounds” value [1] was “++ (0.31-0.7509 = ++)”, the “percent remaining after 60 min in human liver microsomes” value [2] was “++ (30.1-60 = ++)” and the “percent remaining after 60 min in mouse liver microsomes” value [3] was “+ (0-30 = +)”. The EC50 [4] was < 249 nM.
In the case of `CC1(O)CCN(C(=O)c2ccc(-c3cc(-c4ccnc(C5(CO)CC5)c4)cs3)c(Cl)c2)CC1` [Compound I-1629069, (3-chloro-4-(4-(2-(l-(hydroxymethyl)cyclopropyl)pyridin-4-yl)thiophen-2-yl)phenyl)(4-hydroxy-4-methylpiperidin-1-yl)methanone], the “A: ACACA, effect of compounds” value [1] is reported as “+ (>0.751 = +)”, the “percent remaining after 60 min in human liver microsomes” value [2] is reported as “+ (0-30 = +)” and the “percent remaining after 60 min in mouse liver microsomes” value [3] is reported as “+ (0-30 = +)”. For the same molecule, the EC50 [4] was > 500 nM.
In the case of `O=C(c1ccc(-c2cc(-c3ccnc(C4(O)CCC4)c3)cs2)c(Cl)c1)N1CCC(O)CC1` [Compound I-1629076, (3-chloro-4-(4-(2-(1-hydroxycyclobutyl)pyridin-4-yl)thiophen-2-yl)phenyl)(4-hydroxypiperidin-1-yl)methanone], the “A: ACACA, effect of compounds” value [1] is reported as “++ (0.31-0.7509 = ++)”, the “percent remaining after 60 min in human liver microsomes” value [2] is reported as “+++ (≥60.1 = +++)” and the “percent remaining after 60 min in mouse liver microsomes” value [3] is reported as “+++ (≥60.1 = +++)”. For the same molecule, the EC50 [4] was < 249 nM.
In the case of `O=C(c1ccc(-c2cc(-c3ccnc(CC4(O)CCC4)c3)cs2)c(Cl)c1)N1CCC(O)CC1` [Compound I-1629077, (3-chloro-4-(4-(2-((1-hydroxycyclobutyl)methyl)pyridin-4-yl)thiophen-2-yl)phenyl)(4-hydroxypiperidin-1-yl)methanone], the “A: ACACA, effect of compounds” value [1] is reported as “++ (0.31-0.7509 = ++)”, the “percent remaining after 60 min in human liver microsomes” value [2] is reported as “+ (0-30 = +)” and the “percent remaining after 60 min in mouse liver microsomes” value [3] is reported as “++ (30.1-60 = ++)”. The EC50 [4] was < 249 nM.
With `O=C(c1ccc(-c2cc(-c3ccnc(CC4(F)CCC4)c3)cs2)c(Cl)c1)N1CCC(O)CC1` [Compound I-1629078, (3-chloro-4-(4-(2-((1-fluorocyclobutyl)methyl)pyridin-4-yl)thiophen-2-yl)phenyl)(4-hydroxypiperidin-1-yl)methanone] the “A: ACACA, effect of compounds” value [1] was “++ (0.31-0.7509 = ++)”, the “percent remaining after 60 min in human liver microsomes” value [2] was “+ (0-30 = +)” and the “percent remaining after 60 min in mouse liver microsomes” value [3] was “+++ (≥60.1 = +++)”. The EC50 [4] was < 249 nM.
For `O=C(c1ccc(-c2cc(-c3ccnc(C4(O)COC4)c3)cs2)c(Cl)c1)N1CCC(O)CC1` [Compound I-1629083, (3-chloro-4-(4-(2-(3-hydroxyoxetan-3-yl)pyridin-4-yl)thiophen-2-yl)phenyl)(4-hydroxypiperidin-1-yl)methanone], the “A: ACACA, effect of compounds” value [1] was “+ (>0.751 = +)”, the “percent remaining after 60 min in human liver microsomes” value [2] was “+++ (≥60.1 = +++)” and the “percent remaining after 60 min in mouse liver microsomes” value [3] was “+++ (≥60.1 = +++)”. For the same molecule, the EC50 [4] was 250 to 500 nM.
With `O=C(c1ccc(-c2cc(-c3ccnc4c3NCCO4)cs2)c(Cl)c1)N1CCC(O)CC1` [Compound I-1629084, (3-chloro-4-(4-(2,3-dihydro-1H-pyrido[2,3-b][l,4]oxazin-8-yl)thiophen-2-yl)phenyl)(4-hydroxypiperidin-1-yl)methanone] the “A: ACACA, effect of compounds” value [1] was “++ (0.31-0.7509 = ++)”, the “percent remaining after 60 min in human liver microsomes” value [2] was “+ (0-30 = +)” and the “percent remaining after 60 min in mouse liver microsomes” value [3] was “++ (30.1-60 = ++)”. For the same molecule, the EC50 [4] was < 249 nM.

Reference: US20230147993A1, “THIOPHENE COMPOUNDS WITH CYCLIC AMIDES, AND USES THEREOF” (Capulus Therapeutics, LLC, priority 2019, published 2023)
